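Five compound concentrations were applied to cells in 96-well plates for 48 hours; endpoints were derived by simple linear interpolation of the resulting dose-response curve. Here, GI50 denotes the concentration required for 50% inhibition of growth. TGI: total growth inhibition.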
Legend:
Experiment in all cases: NCI-60 cell line screen, 48 h
A549 NSCLC = tested on: A549 NSCLC
ACHN renal = tested on: ACHN renal
M14 melanoma = tested on: M14 melanoma
OVCAR-3 ovarian = tested on: OVCAR-3 ovarian
RXF 393 renal = tested on: RXF 393 renal
SF-268 CNS = tested on: SF-268 CNS
SNB-19 CNS = tested on: SNB-19 CNS
SW-620 colon = tested on: SW-620 colon
UO-31 renal = tested on: UO-31 renal
SK-MEL-28 melanoma = tested on: SK-MEL-28 melanoma

Row | Compound | GI50 (A549 NSCLC) [µM] | TGI (A549 NSCLC) [µM] | GI50 (ACHN renal) [µM] | TGI (ACHN renal) [µM] | GI50 (M14 melanoma) [µM] | TGI (M14 melanoma) [µM] | GI50 (OVCAR-3 ovarian) [µM] | TGI (OVCAR-3 ovarian) [µM] | GI50 (RXF 393 renal) [µM] | TGI (RXF 393 renal) [µM] | GI50 (SF-268 CNS) [µM] | TGI (SF-268 CNS) [µM] | GI50 (SNB-19 CNS) [µM] | TGI (SNB-19 CNS) [µM] | GI50 (SW-620 colon) [µM] | TGI (SW-620 colon) [µM] | GI50 (UO-31 renal) [µM] | TGI (UO-31 renal) [µM] | TGI (SK-MEL-28 melanoma) [µM] | GI50 (SK-MEL-28 melanoma) [µM]
1 | Cc1cc(N2CCCCC2)nc(NCc2cc(Nc3ccnc4cc(Cl)ccc34)ccc2F)n1 | 1.7 | 3.22 | 1.66 | 3.25 | 1.92 | 3.69 | 1.74 | 3.17 | 1.79 | 3.47 | 1.35 | 3.11 | 1.87 | 6.33 | 1.45 | 3.59 | 1.61 | 3.13 | – | –
2 | CN(C)C=O.CN(C)C=O.CN1C(C(=O)Nc2ccccn2)=C([O-])c2ccccc2S1(=O)=O.CN1C(C(=O)Nc2ccccn2)=C([O-])c2ccccc2S1(=O)=O.[Cu+2] | – | > 100 | – | > 100 | – | > 100 | – | > 100 | – | 61.7 | – | > 100 | – | 41.2 | – | > 100 | – | > 100 | > 100 | –
3 | COc1ccc2c(c1)C(=O)c1c-2n(CCCCl)c(=O)c2cc([N+](=O)[O-])ccc12 | 0.196 | > 100 | < 0.01 | – | – | 0.361 | 1.32 | 14 | 1.58 | > 100 | < 0.0262 | – | < 0.0505 | > 100 | 0.123 | – | – | – | > 100 | 2.64
4 | NS(=O)(=O)c1ccc(C(=O)O)cc1 | – | > 100 | – | > 100 | – | > 100 | – | > 100 | – | > 100 | – | > 100 | – | > 100 | – | > 100 | – | > 100 | > 100 | –
5 | Cc1nc2ccccc2c(=O)n1Nc1ccc(C(=O)O)cc1 | – | > 100 | – | – | – | – | – | > 100 | – | > 100 | – | > 100 | – | > 100 | – | > 100 | – | > 100 | > 100 | –
6 | O=C(O)\C=C/C=C/C=C/C=C/C(=O)O | – | > 100 | – | > 100 | – | > 100 | – | > 100 | – | > 100 | – | > 100 | – | > 100 | – | > 100 | – | > 100 | > 100 | –
7 | O=C1CC(c2ccccc2)NCCCCN2CC(CN1)C(C(O)c1ccccc1)C2=O (configuration not stated) | – | > 100 | – | > 100 | – | > 100 | – | > 100 | – | > 100 | – | > 100 | – | > 100 | – | > 100 | – | > 100 | > 100 | –
8 | Nc1ccc([As](=O)(O)O)cc1 | – | > 100 | – | > 100 | – | > 100 | – | > 100 | – | > 100 | – | > 100 | – | > 100 | – | > 100 | – | > 100 | > 100 | –
9 | Cc1cccc(NC(N)=S)c1 | – | – | – | > 100 | – | > 100 | – | > 100 | – | > 100 | – | > 100 | – | > 100 | – | – | – | > 100 | > 100 | –
10 | O=C(Nc1ccc(-n2ccc3c(NC(=O)c4ccccc4)ncnc32)cc1)Nc1ccc(Cl)c(C(F)(F)F)c1 | 1.67 | 3.58 | 1.58 | 3.62 | 1.66 | 3.64 | 1.72 | 3.22 | 1.5 | 3.28 | 2.02 | 4.99 | 2.43 | 7.18 | 2.17 | 4.96 | 2.04 | 4.73 | 4.46 | 1.93
11 | CC1(C)CCc2cc3c(cc2O1)OC(C)(C)CC3=O | – | > 100 | – | > 100 | – | > 100 | – | > 100 | – | – | – | > 100 | – | – | – | > 100 | – | > 100 | – | –
12 | CC(C)(c1ccccc1)c1ccc(Oc2ccc3c(c2)-c2nc-3nc3[nH]c(nc4nc(nc5[nH]c(n2)c2ccc(Oc6ccc(C(C)(C)c7ccccc7)cc6)cc52)-c2cc(Oc5ccc(C(C)(C)c6ccccc6)cc5)ccc2-4)c2ccc(Oc4ccc(C(C)(C)c5ccccc5)cc4)cc32)cc1 | – | > 100 | – | > 100 | – | > 100 | – | – | – | 97 | – | – | – | > 100 | – | > 100 | – | > 100 | > 100 | –
13 | CCc1cc(C)cc2[n+]1CC=C2C | – | > 100 | – | > 100 | – | > 100 | – | > 100 | – | > 100 | – | > 100 | – | > 100 | – | > 100 | – | > 100 | > 100 | –
14 | COc1ccc(C(=O)NNC(=O)c2nsc3ccccc23)cc1 | – | > 100 | – | – | – | > 100 | – | > 100 | – | > 100 | – | > 100 | – | > 100 | – | > 100 | – | > 100 | > 100 | –

Source: PubChem BioAssay (NCI)
